The target in one assay is T1, human FSP1 (Homo sapiens, UniProt Q9BRQ8).
T1 construct: His6 (N, cleaved yes); made in house; host or cells: Escherichia coli BL21 pG-Tf2
T1 sequence (Q9BRQ8 1-373): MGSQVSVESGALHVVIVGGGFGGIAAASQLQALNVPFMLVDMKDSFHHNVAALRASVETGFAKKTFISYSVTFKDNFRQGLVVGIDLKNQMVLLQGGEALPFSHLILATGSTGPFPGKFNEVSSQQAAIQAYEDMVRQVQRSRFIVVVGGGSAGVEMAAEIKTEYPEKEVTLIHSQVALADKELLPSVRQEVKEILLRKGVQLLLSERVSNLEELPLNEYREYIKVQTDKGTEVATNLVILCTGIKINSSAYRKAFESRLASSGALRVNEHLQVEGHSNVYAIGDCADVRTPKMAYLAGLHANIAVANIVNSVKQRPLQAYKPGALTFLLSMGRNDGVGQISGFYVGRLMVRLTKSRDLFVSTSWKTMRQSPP
Briefly: In vitro FSP1 oxidoreductase (NADH consumption) assay, human FSP1. It is filed as biochemical. The following applies: resazurine or coQ1 as electron acceptor. As for the experimental part: (§1) FSP1 activity assays were performed using recombinant, purified murine or human FSP1, NADH, and resazurine or coenzyme-Q1 (coQ1) as electron acceptor molecules. The following conditions were used: 200 μM resazurine were reduced with 750 nM mFSP1 or 150 nM hFSP1; 100 μM coQ1 was reduced with 400 nM mFSP1; and 137 μM coQ1 were reduced with 200 nM hFSP1. The consumption of NADH (500 μM) was measured at 340 nm in phosphate-buffered saline (80 mM Na3PO4, 300 mM NaCl; pH 7.0) at room temperature on a CLARIOstar microplate reader (BMG Labtech). Initial rates were determined, and data were fitted by linear regression using GraphPad Prism software, version 9.1.2.
(§2) In order to determine inhibition of FSP1 by CPBA, FSP1 activity was measured […] either CPBA or iFSP1 as a positive control. In vitro FSP1 oxidoreductase activity assays were performed using recombinant, purified murine or human FSP1, NADH, and resazurine or coenzyme-Q1 (coQ1) as electron acceptor molecules as described above (see FIG. 19).
(§3) In vitro FSP1 activity assays with human (see FIG. 22 C) or murine (see FIG. 22 D) FSP1 were performed as described above. Shown are NADH consumption assays using recombinant, purified human or mouse FSP1 (hFSP1, mFSP1) and resazurine or coenzyme-Q1 (CoQ1) as electron acceptor molecules.
(Alamar Blue is a resazurin reagent that responds to reducing activity.)

For a further assay, the target named is T2, murine FSP1 (Mus musculus, UniProt Q8BUE4).
T2 construct: His6 (N, cleaved yes); made in house; host or cells: Escherichia coli BL21 pG-Tf2
T2 sequence (Q8BUE4 1-373): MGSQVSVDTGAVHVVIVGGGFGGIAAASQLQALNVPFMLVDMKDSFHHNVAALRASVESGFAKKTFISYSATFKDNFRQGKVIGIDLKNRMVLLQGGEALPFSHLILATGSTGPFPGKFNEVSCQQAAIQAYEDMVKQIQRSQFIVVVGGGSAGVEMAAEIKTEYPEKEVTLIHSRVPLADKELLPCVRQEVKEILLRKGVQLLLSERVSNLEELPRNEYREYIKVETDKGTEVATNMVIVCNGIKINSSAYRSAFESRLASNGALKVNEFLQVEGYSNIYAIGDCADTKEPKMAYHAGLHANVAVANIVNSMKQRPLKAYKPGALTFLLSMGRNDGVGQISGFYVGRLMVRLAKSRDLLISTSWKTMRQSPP
As to the kind of experiment: In vitro FSP1 oxidoreductase (NADH consumption) assay, murine FSP1. The settings on record: resazurine or coQ1 as electron acceptor. It is filed as biochemical. How it is done:
as §1, §2, §3

In another assay the test system is cancer cell lines. Briefly: FIN56 toxicity in a panel of cancer cell lines. It is filed as cell-based, human, mouse, rat. The source says: Cell culture media and supplements were from Thermo Fisher Scientific, unless specified otherwise. Mouse embryonic fibroblasts (MEFs) were generated from Pgp-wildtype (Pgp^fl/fl) or heterozygous Pgp-inactivated mouse embryos (Pgp^fl/D34N) as described (Segerer et al., 2016). Human embryonic kidney HEK-AD293 (HEK293) cells (Stratagene), HT-1080 human fibrosarcoma cells, PC3 and Du145 human prostate carcinoma cells, HepG2 human hepatocytic carcinoma (HCC) cells, Hepa 1-6 murine HCC, 4T1 mouse breast carcinoma, Colon-26 mouse colon carcinoma, C6 rat glioblastoma and RAW264.7 mouse monocytes/macrophages (all from LGC Standards) were cultured in Dulbecco's modified Eagle's medium (DMEM, 4.5 g/L glucose) supplemented with 10% (v/v) heat-inactivated fetal calf serum (FCS), 2 mM L-glutamine, 100 U/mL penicillin and 100 μg/mL streptomycin (Pen/Strep). Hepa-1c1c7 murine HCC were grown in alpha MEM without nucleosides (Gibco, cat. no. 31095029) supplemented with 10% FCS and Pen/Strep. JTC-27 rat HCC were cultured in RPMI-1640 with 10% FCS and Pen/Strep. […]
Cells were seeded onto 96-well plates (5,000 cells per well), and treated with serial dilutions of ferroptosis-inducing compounds (erastin, BSO, RSL3, FIN56) or cytotoxic drugs (staurosporine, nocodazole, tunicamycin, paclitaxel, etoposide, menadione, rotenone, FCCP, carboplatin) in the absence or presence of CPBA or iFSP1 (100 μM or 10 μM, respectively; unless stated otherwise) or the DMSO solvent control. Ferroptotic cell death was evaluated by incubating in the absence or presence of liproxstatin-1 (100 nM), ferrostatin-1 (200 nM), or deferoxamine (100 μM). Cell viability was assessed after 16 h using AquaBluer as an indicator of viable cells according to the manufacturer's recommendations (MultiTarget Pharmaceuticals, LLC). Fluorescence (excitation, 540 nm; emission, 590 nm) was analyzed on a Clariostar microplater reader. […]

Entries after “also recorded” stand apart in the source; their conditions may differ.

On to `O=C(Nc1ccccc1C(=O)O)c1ccc(Oc2ccc(C(=O)Nc3ccccc3C(=O)O)cc2)cc1` [CPBA, 2-[[4-[4-[(2-carboxyphenyl)carbamoyl]phenoxy]benzoyl]amino]-benzoic acid], for which, on human FSP1, the “inhibition of human FSP1 activity” value is “inhibits human and murine FSP1 activity”. Besides, the “inhibition of murine FSP1 activity” value against murine FSP1 was “inhibits human and murine FSP1 activity; also recorded: much more effective inhibition of murine FSP1 by CPBA compared to iFSP1”. Besides, the “sensitization of cancer cell lines to FIN56-induced ferroptosis” value in the assay on cancer cell lines (CPBA 100 μM, iFSP1 10 μM (3 μM in HepG2), 16 h) was “sensitizes cancer cell lines of different species and tumor types to ferroptosis”.
With `Cc1ccc(-c2c(C#N)c(N)n3c(nc4ccccc43)c2C#N)cc1` [iFSP1, reference compound], the “inhibition of human FSP1 activity” value on human FSP1 is “is an inhibitor of human FSP1”. Besides, the “inhibition of murine FSP1 activity” value against murine FSP1 is “has no effect on mFSP1; also recorded: much less active against murine FSP1”. The “effect in human cancer cell lines” value in the assay on cancer cell lines (human cancer cell lines) was “able to inhibit endogenous and overexpressed FSP1 in human cancer cell lines, and thereby sensitize these cells to ferroptotic death”. Also, the “effect in mouse or rat cancer cell lines” value in the assay with cancer cell lines (mouse or rat cancer cell lines (FIG. 20A)) is “completely ineffective in mouse or rat cancer cell lines”.

These data come from US20250064762A1, “A SUBSTITUTED AROMATIC DICARBONIC ACID AMIDE AS AN INHIBITOR OF THE FERROPTOSIS SUPPRESSOR PROTEIN-1 (FSP1)” (JULIUS-MAXIMILIANS-UNIVERSITÄT WÜRZBURG, priority 2021, published 2025).
